Results: the NIST ThermoML archive (doi:10.1016/j.jct.2012.01.016)
Values joined by “and” are separate entries in the source; they are usually repeats but may differ in a detail not shown here. Equal entries are not always repeated.

Assay: activity coefficient (dimensionless); of the first substance listed, at infinite dilution; xn = mol fraction of the nth substance listed
Conditions: Liquid, Headspace solid phase microextraction, x1 = 0

Structure (SMILES)	activity coefficient (298.15 K)	activity coefficient (308.15 K)	activity coefficient (318.15 K)
Cc1ccccc1C [1,2-dimethylbenzene] + O=Cc1ccco1	4.12 and 3.74	4.44 and 3.55	6.77 and 4.61
Cc1ccccc1 [toluene] + O=Cc1ccco1	3.72 and 3.46	3.79 and 3.33	5.3 and 3.8
c1ccccc1 [benzene] + O=Cc1ccco1	2.61 and 2.45	2.93 and 2.4	3.87 and 2.89
C1CCCC1 [cyclopentane] + O=Cc1ccco1	11.6 and 11.4	10.7 and 10.1	10.4 and 9.3
CCCCC [pentane] + O=Cc1ccco1	20.8 and 20.4	17.9 and 16.9	16.8 and 15
CCCCCC [hexane] + O=Cc1ccco1	25.6 and 25.3	23.6 and 22.8	22.2 and 21.2
CCCCCCC [heptane] + O=Cc1ccco1	32 and 31.6	30.8 and 29.6	28.3 and 26.4
C1CCCCC1 [cyclohexane] + O=Cc1ccco1	15.7 and 15.5	13.5 and 12.9	12 and 10.9
CCc1ccccc1 [ethylbenzene] + O=Cc1ccco1	4.84 and 4.52	5.02 and 4.35	7.21 and 5.25
